Measured values published in patent publication US6372747B1, “Farnesyl protein transferase inhibitors” (Schering Corporation, priority 1998, dated 2002).

test system: COS Cell; assay: COS Cell IC50 (Cell-Based Assay); settings: range stated for the group
Protocol: FPT IC50 (inhibition of farnesyl protein transferase, in vitro enzyme assay) and COS Cell IC50 (Cell-Based Assay) were determined following the assay procedures described in WO 95/10516, published Apr. 20, 1995. GGPT IC50 (inhibition of geranylgeranyl protein transferase, in vitro enzyme assay), Cell Mat Assay, and anti-tumor activity (in vivo anti-tumor studies) could be determined by the assay procedures described in WO 95/10516. The disclosure of WO 95/10516 is incorporated herein by reference thereto.

Row | SMILES | IC50 [nM]
1 | Cc1cn(CCNC(=O)[C@H]2CN(C3c4ccc(Cl)cc4CCc4cc(Br)cnc43)CCN2C(=O)NC2CCCCC2)cn1 (some centres unmarked) [Example 259] | ≤ 35
2 | CC(C)(CCNC(=O)[C@H]1CN(C2c3ccc(Cl)cc3CCc3cc(Br)cnc32)CCN1C(=O)NC1CCCCC1)n1ccnc1 (some centres unmarked) [Example 1] | 10 to 920
3 | CC(C)(CCNC(=O)[C@H]1CN([C@H]2c3ccc(Cl)cc3CCc3cc(Br)cnc32)CCN1C(=O)CC1CCN(C(N)=O)CC1)n1ccnc1 [Example 8] | 10 to 920
4 | Cn1cncc1CCCNC(=O)[C@H]1CN(C2c3ccc(Cl)cc3CCc3cc(Br)cnc32)CCN1C(=O)NC1CCCCC1 (some centres unmarked) [Example 101] | ≤ 35
5 | CC(C)(C)NC(=O)N1CCN(C2c3ccc(Cl)cc3CCc3cc(Br)cnc32)C[C@@H]1C(=O)NCCCn1ccnc1N (some centres unmarked) [Example 103] | ≤ 35
6 | NC(=O)[C@H](Cc1cnc[nH]1)NC(=O)[C@H]1CN(C2c3ccc(Cl)cc3CCc3cc(Br)cnc32)CCN1C(=O)NC1CCCCC1 (some centres unmarked) [Example 25] | 10 to 920

test system: Human tumor cells; assay: Soft Agar Assay (anchorage-independent growth); format: cell-based; settings: Homo sapiens, range stated for the group unless single
Protocol: Anchorage-independent growth is a characteristic of tumorigenic cell lines. Human tumor cells can be suspended in growth medium containing 0.3% agarose and an indicated concentration of a farnesyl transferase inhibitor. The solution can be overlayed onto growth medium solidified with 0.6% agarose containing the same concentration of farnesyl transferase inhibitor as the top layer. After the top layer is solidified, plates can be incubated for 10-16 days at 37° C. under 5% CO2 to allow colony outgrowth. After incubation, the colonies can be stained by overlaying the agar with a solution of MTT (3-[4,5-dimethyl-thiazol-2-yl]-2,5-diphenyltetrazolium bromide, Thiazolyl blue) (1 mg/mL in PBS). Colonies can be counted and the IC50's can be determined.

Row | IC50 [nM] | SMILES
7 | 2 to 10 | Cc1ncc(CCN(CC2CC2)C(=O)[C@H]2CN([C@H]3c4ccc(Cl)cc4CCc4cccnc43)CCN2C(=O)OC(C)(C)C)n1C [Example 365]
8 | 2 to 10 | Cc1cn(CCCN(Cc2ccccc2O)C(=O)[C@H]2CN([C@H]3c4ccc(Cl)cc4CCc4cccnc43)CCN2C(=O)OC2CCCCC2)cn1 (single isomer, unassigned) [Example 316]
9 | 2 to 10 | O=C([C@H]1CN([C@H]2c3ccc(Cl)cc3CCc3cc(Br)cnc32)CCN1C(=O)OC1CCCCC1)N(CCCn1ccnc1)Cc1ccccc1 [Example 170]
10 | 2 to 10 | Cc1nccn1CCCN(Cc1ccccc1)C(=O)[C@H]1CN(C2c3ccc(Cl)cc3CCc3cc(Br)cnc32)CCN1C(=O)OC1CCCCC1 (single isomer, unassigned) [Example 382]
11 | 2 to 10 | Cc1cn(CCCN(Cc2ccccc2)C(=O)[C@H]2CN(C3c4ccc(Cl)cc4CCc4cc(Br)cnc43)CCN2C(=O)OC2CCCCC2)c(C)n1 (single isomer, unassigned) [Example 375]
12 | 2 to 10 | Cc1cn(CCCN(Cc2cccc(Cl)c2)C(=O)[C@H]2CN([C@H]3c4ccc(Cl)cc4CCc4cccnc43)CCN2C(=O)OC2CCCCC2)cn1 [Example 322]
13 | 2 to 10 | CC(C)(C)OC(=O)N1CCN([C@@H]2c3ccc(Cl)cc3CCc3cc(Br)cnc32)C[C@@H]1C(=O)N(CCCn1ccnc1)Cc1ccccc1 [Example 160]
14 | 2 to 10 | CC(C)(C)OC(=O)N1CCN([C@H]2c3ccc(Cl)cc3CCc3cc(Br)cnc32)C[C@@H]1C(=O)N(CCCn1ccnc1)Cc1cccnc1 [Example 206]
15 | 2 to 10 | CC(C)OC(=O)N1CCN([C@@H]2c3ccc(Cl)cc3CCc3cccnc32)C[C@@H]1C(=O)N(CCCn1ccnc1)Cc1ccccc1 [Example 187]
16 | 2 to 10 | Cc1cn(CCCN(Cc2ccccc2)C(=O)[C@H]2CN([C@@H]3c4ccc(Cl)cc4CCc4cccnc43)CCN2C(=O)OC2CCCC2)cn1 [Example 202]
17 | 2 to 10 | Cn1cncc1CCCN(Cc1ccccc1)C(=O)[C@H]1CN([C@H]2c3ccc(Cl)cc3CCc3cccnc32)CCN1C(=O)OC1CCCCC1 [Example 335]
18 | 2 to 300 | CCOC(=O)N1CCC([C@H]2c3ccc(Cl)cc3CCc3cc(Br)cnc32)CC1C(=O)N(CCCn1ccnc1)Cc1ccccc1 (single isomer, unassigned) [80 (Isomer A)]
19 | 2 to 10 | Cc1cn(CCCN(Cc2ccccc2)C(=O)[C@H]2CN([C@H]3c4ccc(Cl)cc4CCc4cccnc43)CCN2C(=O)OC2CCCCC2)cn1 [Example 225]
20 | 2 to 10 | Cc1cn(CC(O)(CNC(=O)[C@H]2CN(C3c4ccc(Cl)cc4CCc4cccnc43)CCN2C(=O)OC2CCCCC2)c2ccccc2)cn1 (some centres unmarked) [Example 339]
21 | 2 to 10 | Cc1cn(CCCN(Cc2ccccc2)C(=O)[C@H]2CN([C@H]3c4ccc(Cl)cc4CCc4cccnc43)CCN2C(=O)OC(C)C)cn1 [Example 200]
22 | 2 to 10 | CC(C)COC(=O)N1CCN([C@@H]2c3ccc(Cl)cc3CCc3cc(Br)cnc32)C[C@@H]1C(=O)N(CCCn1ccnc1)Cc1ccccc1 [Example 184]
23 | 2 to 10 | O=C([C@H]1CN([C@@H]2c3ccc(Cl)cc3CCc3cccnc32)CCN1C(=O)OC1CCCCC1)N(CCCn1ccnc1)Cc1ccccc1 [Example 188]
24 | 2 to 10 | CC(C)(C)OC(=O)N1CCN([C@@H]2c3ccc(Cl)cc3CCc3cc(Br)cnc32)C[C@@H]1C(=O)N(CCCn1ccnc1)Cc1cccnc1 [Example 207]

Row | IC50 [nM] | SMILES
25 | 2 to 300 | CC(C)(C)NC(=O)N1CCN([C@@H]2c3ccc(Cl)cc3CCc3cc(Br)cnc32)C[C@@H]1C(=O)NCCC(C)(C)n1ccnc1 [Example 11]
26 | 2 to 10 | Cc1cn(CCCN(Cc2ccccc2Cl)C(=O)[C@H]2CN([C@H]3c4ccc(Cl)cc4CCc4cccnc43)CCN2C(=O)OC2CCCCC2)cn1 (single isomer, unassigned) [Example 324]
27 | 2 to 10 | CC(C)(C)OC(=O)N1CCN(C2c3ccc(Cl)cc3CCc3cc(Br)cnc32)C[C@@H]1C(=O)N(CCCn1ccnc1)Cc1cccnc1 (some centres unmarked) [Example 117]
28 | 2 to 10 | Cn1cncc1CCN(CC1CC1)C(=O)[C@H]1CN([C@H]2c3ccc(Cl)cc3CCc3cc(Br)cnc32)CCN1C(=O)OC(C)(C)C [305 (11s,2R isomer)]
29 | 2 to 10 | CC(C)(C)OC(=O)N1CCN(C2c3ccc(Cl)cc3CCc3cc(Br)cnc32)C[C@@H]1C(=O)N(CCCn1ccnc1)Cc1ccncc1 (some centres unmarked) [Example 116]
30 | 2 to 10 | O=C([C@H]1CN([C@H]2c3ccc(Cl)cc3CCc3cccnc32)CCN1C(=O)OC1CCCCC1)N(CCCn1ccnc1CO)Cc1ccccc1 [Example 208]
31 | 2 to 10 | Cc1cn(CCCN(Cc2ccccc2)C(=O)[C@H]2CN([C@@H]3c4ccc(Cl)cc4CCc4cccnc43)CCN2C(=O)OC2CCCCC2)cn1 [Example 198]
32 | 2 to 300 | CC(C)OC(=O)N1CCN([C@H]2c3ccc(Cl)cc3CCc3cc(Br)cnc32)C[C@@H]1C(=O)NCCC(C)(C)n1ccnc1 [Example 16]
33 | 2 to 10 | Cc1cn(CCCN(Cc2ccccc2)C(=O)[C@H]2CN([C@@H]3c4ccc(Cl)cc4CCc4cc(Br)cnc43)CCN2C(=O)OC2CCCCC2)cn1 [Example 197]
34 | 2 to 300 | CC(C)(C)OC(=O)N1CCC(C2c3ccc(Cl)cc3CCc3cc(Br)cnc32)CC1C(=O)N(CCCn1ccnc1)Cc1ccccc1 (centres unmarked) [Example 88]
35 | 2 to 300 | O=C(C1CC([C@H]2c3ccc(Cl)cc3CCc3cc(Br)cnc32)CCN1C(=O)NC1CCCCC1)N(CCCn1ccnc1)Cc1ccccc1 (single isomer, unassigned) [Example 79 Step B (Isomer A)]
36 | 2 to 10 | CC(C)(C)OC(=O)N1CCN(C2c3ccc(Cl)cc3CCc3cc(Br)cnc32)C[C@@H]1C(=O)N(CCCn1ccnc1)Cc1ccccn1 (some centres unmarked) [Example 217]
37 | 2 to 10 | Cc1cn(CCCN(Cc2ccccc2)C(=O)[C@H]2CN(C3c4ccccc4CCc4cccnc43)CCN2C(=O)OC2CCCCC2)cn1 (single isomer, unassigned) [Example 372]
38 | 2 to 10 | Cc1cn(CCCN(Cc2ccccc2)C(=O)[C@H]2CN([C@@H]3c4ccc(Cl)cc4CCc4cc(Br)cnc43)CCN2C(=O)OC(C)C)cn1 [Example 196]
39 | 2 to 10 | Cc1cn(CCCN(Cc2ccccc2)C(=O)[C@@H]2CN([C@H]3c4ccc(Cl)cc4CCc4cccnc43)CCN2C(=O)OC2CCCCC2)cn1 (single isomer, unassigned) [Example 321]
40 | 2 to 10 | O=C([C@H]1CN([C@H]2c3ccc(Cl)cc3CCc3cccnc32)CCN1C(=O)OC1CCCCC1)N(CCCn1ccnc1)Cc1ccccc1 [Example 186]
41 | 2 to 10 | CC(C)OC(=O)N1CCN([C@H]2c3ccc(Cl)cc3CCc3cccnc32)C[C@@H]1C(=O)N(CCCn1ccnc1)Cc1ccc(F)cc1 [Example 204]

same assay, conditions: range stated for the group unless single

Row | IC50 [nM] | SMILES
42 | 2 | Cc1cn(CCCN(Cc2ccccc2)C(=O)[C@H]2CN([C@H]3c4ccc(Cl)cc4CCc4cccnc43)CCN2C(=O)OC2CCCCC2)cn1 [Example 225]

test system: not given; assay: not given; settings: not given

Row | melting point [°C] | SMILES
43 | 142 to 144 | CC(C)(CCNC(=O)[C@H]1CN(C2c3ccc(Cl)cc3CCc3cc(Br)cnc32)CCN1C(=O)NC1CCCCC1)n1ccnc1 (some centres unmarked) [Example 1]
44 | 157 to 159 | CC(C)(C)NC(=O)N1CCN([C@@H]2c3ccc(Cl)cc3CCc3cc(Br)cnc32)C[C@@H]1C(=O)NCCC(C)(C)n1ccnc1 [Example 11]
45 | 123 to 127 | CC(C)(CCNC(=O)[C@H]1CN([C@H]2c3ccc(Cl)cc3CCc3cc(Br)cnc32)CCN1C(=O)CC1CCN(C(N)=O)CC1)n1ccnc1 [Example 8]
46 | 109 to 111 | CC(C)OC(=O)N1CCN([C@H]2c3ccc(Cl)cc3CCc3cc(Br)cnc32)C[C@@H]1C(=O)NCCC(C)(C)n1ccnc1 [Example 16]
47 | 164 to 169 | NC(=O)[C@H](Cc1cnc[nH]1)NC(=O)[C@H]1CN(C2c3ccc(Cl)cc3CCc3cc(Br)cnc32)CCN1C(=O)NC1CCCCC1 (some centres unmarked) [Example 25]
